Source: patent US12150929B2, “Compositions and methods for the treatment of depression” (Janssen Pharmaceuticals, Inc., priority 2021, dated 2024)
Like-named read-outs stand apart in the source and are kept apart here.

Tests used:
[1] = Maximum plasma concentration (Cmax) of aticaprant, Example 1; type: in vivo; settings: human, oral, 10 mg, eITT, read-out: Cmax, Arithmetic Mean (SD)
Method: Aticaprant was supplied as 5-mg capsules. Placebo was supplied as matching capsules. All subjects took 2 capsules QD. The capsules were taken daily from Day 2 to Day 78 in fasting condition with some water (fasting for at least 4 hours before dosing). Medication was taken before breakfast. If the subject has forgotten to take the medication before breakfast, this was done before the next following meal, at the latest at dinner of the same day. If the subject remembered later than dinner, the dose of that day was omitted, and the subject took the dose before breakfast on the next day.
Cmax is defined as maximum plasma concentration of aticaprant. […] Here ‘N’ (number of subjects analyzed) includes the number of subjects evaluable for this endpoint. Here ‘n’ (number analyzed) included all subjects evaluable for specified time point categories.

[2] = Weight change, Example 1; type: in vivo, human
Method: Treatment with aticaprant as described herein has several advantages over the treatments in the art. […] As used herein, the term “weight gain” refers to an increase in the weight of patient, relative to the weight of the patient before taking aticaprant or the weight of the patient that is assessed at the time of the initial administration of the aticaprant. In certain embodiments, the patient may actually see a decrease in overall weight, relative to the weight of the patient before taking aticaprant.
At the lead-in baseline timepoint, the mean weight for subjects in the placebo group was 76.17 kg compared to 78.66 in the aticaprant group. After 6 weeks in the double-blind treatment phase, the mean weight in the placebo group was 75.75 kg compared to 78.57 kg in the aticaprant group. […] This is unexpected because other adjunctive treatments for MDD result in a mean weight increase. See, Thase M, et al. J Clin Psych. 2015: 76(9), 1224-1231; Thase, J Clin Psych. 2015, 76(9): 1232-1240; El Khalili, Int J Neuropsychopharmacol. 2010, 13, 917-932; Marcus, J. Clin. Psychopharmacol. […] Nashville, Tenn, ACNP, 2008; Earley, American College of Neuropsychopharmacology, 2007, Annual Meeting Abstracts (Boca Raton, Fla, Dec. 9-13, 2007). Nashville, TN, ACNP, 2007). See, Table 29.

- Cmax ([1]; Week 1 (n = 56)): 32.7 ± 10.9 ng/mL
- Cmax ([1]; Week 3 (n = 56)): 33.5 ± 11.1 ng/mL
- Cmax ([1]; Week 6 (n = 56)): 34.3 ± 11.1 ng/mL
- Mean weight, Lead-in Baseline, mean (SE) ([2]; Lead-in Baseline, n = 85): 78.66 (1.65) kg
- Mean weight, Screening, mean (SE) ([2]; Screening, n = 85): 78.42 (1.65) kg
- Mean weight, Withdrawal Baseline, mean (SE) ([2]; Withdrawal Baseline (after 6 weeks double-blind treatment), n = 85): 78.57 (1.71) kg
- Mean weight, Relative % Change ([2]; Withdrawal vs Lead-in, n = 85): −0.11%
- mean weight ([2]; after 6 weeks in the double-blind treatment phase): 78.57 kg
- weight over the 6-week double blind treatment period ([2]; both groups): remained relatively stable
- mean weight ([2]; lead-in baseline timepoint): 78.66 kg
- Mean weight, Absolute Change (Withdrawal − Lead-in) ([2]; n = 85): -0.09 kg
Compound: Cc1cc(C)cc(C2CCCN2Cc2ccc(Oc3ccc(C(N)=O)cc3F)cc2)c1 (centres unmarked) [aticaprant, 3-fluoro-4-4-2-(3,5-dimethylphenyl)pyrrolidin-1-yl-methylphenoxybenzamide]
